SMILES	melting point [°C]
CCCCc1ncc(CCN(C)C(Cc2ccccc2)C(=O)O)n1Cc1ccccc1Cl (stereo unspecified)	59 to 61
COc1ccc(N2CCN(CCOCc3ccccc3)C2=O)cc1	54 to 55
O=C(C=Cc1ccc(Cl)cc1)C(CC=Cc1ccccc1)c1ccccc1 (stereo unspecified)	92 to 95
CC1CC(=O)NN=C1c1ccc(NC(=O)c2ccccc2O)cc1 (stereo unspecified)	218 to 220
CC(CO)Oc1ccc(CNc2ccc(Cl)cc2)cc1 (stereo unspecified)	81 to 83
C/C(=C\c1ccc(C#N)cc1)c1ccc2c(c1)C(C)(C)C=CC2(C)C	140 to 142
O=C(CCc1ccccc1)Nc1ccc([N+](=O)[O-])cc1	117 to 119
O=C(Nc1cccc(C(F)(F)F)c1)c1cccc2cc(O)ccc12	201 to 202
CCCCNC(=O)Oc1c(C)cc(Oc2ccc(C)cc2)cc1C	110 to 112
CCc1ccccc1NC=C1C(=O)N(c2cccc(NC(=O)OC)c2)N=C1C	229
COc1cccc(N(CC(=O)OC(C)(C)C)C(=O)CN2C(=O)c3ccccc3C2=O)c1	148
COc1cc2c(c(OC(C)=O)c1)C1CCC3(C)C(OC(=O)C(F)(F)F)CCC3C1CC2 (stereo unspecified)	137 to 138
CC(C)N1CCC(C(C(N)=O)(c2ccccc2)c2ccccc2)C1 (stereo unspecified)	110 to 112
O=c1[nH]c2cc(F)c([N+](=O)[O-])c(Br)c2[nH]c1=O	320 to 325
Fc1ccc(N2CCN(CCCOc3ccc(-c4nnco4)cc3)CC2)cc1	157 to 158
NCCNC(=O)Cc1ccsc1	89.7 to 92.1
CCOC(=O)CC(C)(O)c1ccc(-c2ccccc2)cc1 (stereo unspecified)	58 to 60
Cc1ccc(-c2ccccc2)c(O)c1-c1ccccc1	279 to 280
CC(OC(=O)NCC1(CC(=O)O)CCCCC1)OC(=O)C(C)C (stereo unspecified)	63 to 64
CNC(=O)c1ccccc1Nc1nc(Nc2cc3c(cc2OC)CC(=O)NCC3)ncc1Cl	> 250
N#Cc1ccc(-c2cc(N(Cc3ccc(O)cc3)n3cnnc3)ccc2C#N)cc1	221 to 223
COC(=O)N1CCc2ccccc2CC1	53 to 54
CC1(C)OC(=O)Nc2c(O)cc(-c3cc(F)cc(C#N)c3)cc21	197 to 198
O=C(c1cc(C(F)(F)F)cc(C(F)(F)F)c1)N1CCC2(CC1)C(=O)NCN2c1ccccc1Cl	157 to 159
CCOC(=O)/C=C/c1sc(SC)c2c1CCCC2=O	104 to 105

SMILES	melting point [°C]
OC1CSC(Oc2cncc(-c3ccc(F)cc3)c2)C(O)C1O (stereo unspecified)	208 to 209
CCCCc1nc2cccc(C(=O)OC)c2n1Cc1ccc(-c2ccccc2-c2nnn[nH]2)cc1	153 to 155
CCC(=CC(CSc1nnnn1-c1ccccc1)=NO)C(C)[N+](=O)[O-] (stereo unspecified)	66 to 69
N#CCCNc1ccc(CCCN2CCN(c3ccccc3)CC2)cc1	141 to 143
Nc1cccc2c1S(=O)(=O)CC2	117 to 119
CC(SC(=O)c1ccccc1)C(=O)NC(Cc1ccccc1)C(=O)O (stereo unspecified)	173 to 175
N#CCCn1c2ccccc2c2cc([N+](=O)[O-])ccc21	225
Cc1cc(-c2cc(F)c(F)cc2-c2ccc(S(N)(=O)=O)cc2)ccc1F	152
CCOC(=O)COc1cc(C)c(C)c2c1CCC2=O	100 to 101
CNCCc1c[nH]c2ccc(Cn3cncn3)cc12	139 to 141
O=C(Nc1cc2ncc(CN3CCCC3)cc2cc1F)c1ccc(-c2ccc(C(F)(F)F)cc2)cc1	209 to 212
O=C1c2ccc(Cl)cc2C(=O)N1c1ccc(Cl)cc1OC(F)(F)F	156 to 157
CCOCc1cc2ccc(OCc3ccccc3)cc2o/c1=N\c1ccccc1	94 to 95
OC1CCc2c(Br)ccc(Nc3cc(-c4ccc(C(F)(F)F)cc4)ncn3)c2C1 (stereo unspecified)	192
O=C1Nc2ncccc2N2CCNCC12 (stereo unspecified)	315 to 319
CCN(CC)C(=O)c1ccc2ccccc2c1-c1ccccc1	121 to 122
O=C(CSCc1ccc(F)cc1)NO	115 to 116
CS(=O)(=O)c1ccc(C2=C(c3ccc(Cl)cc3)CCC2)cc1	128
CNC(=O)NCCn1c(-c2ccc(CN3CCOCC3)cc2)csc1=Nc1ccc(F)c(C)c1	142 to 145
CCOC(=O)C1=C(C)Nc2cc[nH]c(=O)c2C1c1ccccc1Cl (stereo unspecified)	204 to 205
CC1Oc2ccccc2C(O)C1n1ccnc1 (stereo unspecified)	160 to 175
CCCCCCCCCCCCCCCCCCNC(=O)OC[C@H]1CC[C@@H](CO)O1 (relative stereo)	79 to 80
CON=C(C(=O)O)c1cccc(NC(=O)C(F)(F)F)n1	194 to 195
COc1cccc(-c2c3cccc(OC(C)=O)c3c(OC(C)=O)c3c(OC(C)=O)cccc23)c1	278

Now from value to compound:

melting point [°C]	SMILES
151 to 152	CCc1cc2c(=O)n3cc(C(=O)OC)ccc3nc2s1
158 to 160	CCCSc1ncc(C(=O)O)n1Cc1ccccc1Cl
75 to 77	CCOC(=O)Cc1ccc(Cc2nc3c(F)c(F)cc(F)c3s2)cc1
131 to 133	Cc1ccccc1Nc1c(C(=O)C(C)C)cnc2c(O)cccc12
130	CCOC(=O)c1cn(CC)c2nc(N3CCN(C)CC3)ccc2c1=O
228 to 230	Nc1ccc(F)c(-n2cc(C(=O)O)c(=O)c3cc(F)c(F)c(Cl)c32)n1
143 to 144	CC(O)=C(C#N)C(=O)Nc1cc(Cl)ccc1Cl
235 to 237	CC(C)n1nc(-c2c(Cl)nc(N)nc2-c2ccccc2)ccc1=O
79 to 80	O=C(OCc1snc(Cl)c1Cl)c1ccccc1
201 to 202	Cc1noc(NC(=O)N2CCN(c3nc(-c4cccc(Cl)c4)cs3)CC2)c1C
> 220	Cc1cc(-c2cccc(N)n2)c(C)cc1OCCN1CCN(CCc2ccccc2)CC1
84 to 85	Cc1nc2cc(Br)ccc2s1
> 300	O=C1C2=C(NC(=O)C3(N2)SCCS3)c2ccccc21
> 260	O=C(O)c1ccc(C(=O)/C=C/c2ccc(-c3cccs3)cc2F)cc1
74 to 76	CN(C)c1nc(N(C)C)c2ccccc2n1
134 to 136	COc1ccc(Nc2cnc3cnc(-c4ccc(O)cc4)nc3c2)cc1
153 to 154	CCOC(=O)CCc1nnc(-c2nccs2)c2cc(OC)ccc12
89 to 92	CCOCn1c(C(F)(F)F)nc2cc(Cl)c(Cl)cc21
219 to 220	COc1cc(C(=O)O)ccc1OCc1nc(-c2ccccc2)oc1C
138 to 139	Cc1cc(S(F)(F)(F)(F)F)ccc1C(=O)O
68	Clc1cnc(Oc2cccc(C=C(Br)Br)c2)nc1
120	CC(=O)N1CCC(C(=O)c2ccc(Br)cc2)CC1
93 to 94	C=CCOc1cc([N+](=O)[O-])ccc1OC
155 to 157	Nc1ccc2oc(-c3ccccc3)nc2c1
163 to 164	CNC(=O)Nc1cccc(C(=O)Nc2ccccn2)c1
90 to 94	CCOC(=O)c1cn(-c2ccc3ncccc3c2)cn1
67 to 68	COC(=O)Cc1c(Cl)nc(C)nc1Cl

From a melting point compilation (Tetko et al.; mined from patent text by program, amines drawn as free bases though some values may be those of a salt)
